In the first experiment the test system is HBV rcDNA. The experiment can be described thus: HepDE19 assay with bDNA quantitation of HBV rcDNA. It counts as cell-based, hepatitis B virus. Particulars: HepDE19 assay, inhibition of formation of relaxed circular DNA (rcDNA), bDNA quantitation; read-out: DE-19bDNA EC50. In a few lines:
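Compounds, top concentration 25 μM in 8-point duplicate series, were applied to Tet-free HepDE19 cultures for 7 days. Branched-DNA quantitation of HBV rcDNA against untreated wells gave EC50 and EC90 by 4-parameter fit. Viability (CC50) came from ATP luminescence on parallel plates incubated 4 days.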
Turning to `CC(C)CN(C(=O)Nc1ccc(F)cc1)C(C)c1c[nH]c(=O)c2cc(F)c(F)cc12` (single isomer, unassigned) [Compound 288, 1-(1-(6,7-Difluoro-1-oxo-1,2-dihydroisoquinolin-4-yl)ethyl)-3-(4-fluorophenyl)-1-isobutylurea], the EC50 stood at 4 nM.
In the case of `CC(c1c[nH]c(=O)c2cc(F)c(F)cc12)N(CCCO)C(=O)Nc1ccc(F)c(Cl)c1` (single isomer, unassigned) [Compound 289, 3-(3-Chloro-4-fluorophenyl)-1-(1-(6,7-difluoro-1-oxo-1,2-dihydroisoquinolin-4-yl)ethyl)-1-(3-hydroxypropyl)urea], the EC50 worked out at 370 nM.
On the same count and under the same terms, the figure for `CC(c1c[nH]c(=O)c2cc(F)c(F)cc12)N(CCCO)C(=O)Nc1ccc(F)c(Cl)c1` (single isomer, unassigned) [Compound 290, 3-(3-Chloro-4-fluorophenyl)-1-(1-(6,7-difluoro-1-oxo-1,2-dihydroisoquinolin-4-yl)ethyl)-1-(3-hydroxypropyl)urea] is 2 nM.
Take `CC(c1c[nH]c(=O)c2cc(F)c(F)cc12)N(CCCO)C(=O)Nc1ccc(F)cc1` (single isomer, unassigned) [Compound 291, 1-(1-(6,7-Difluoro-1-oxo-1,2-dihydroisoquinolin-4-yl)ethyl)-3-(4-fluorophenyl)-1-(3-hydroxypropyl) urea]: the 50% effective concentration (EC50) came out at 4600 nM.
Still for that read-out and setting: the figure for `CC(c1c[nH]c(=O)c2cc(F)c(F)cc12)N(CCCO)C(=O)Nc1ccc(F)cc1` (single isomer, unassigned) [Compound 292, 1-(1-(6,7-Difluoro-1-oxo-1,2-dihydroisoquinolin-4-yl)ethyl)-3-(4-fluorophenyl)-1-(3-hydroxypropyl) urea] is 10 nM; for `CC(c1c[nH]c(=O)c2ccc(F)cc12)N(CC(CO)CO)C(=O)Nc1ccc(F)c(Cl)c1` (single isomer, unassigned) [Compound 295, 3-(3-Chloro-4-fluorophenyl)-1-(1-(6-fluoro-1-oxo-1,2-dihydroisoquinolin-4-yl)ethyl)-1-(3-hydroxy-2-(hydroxymethyl)propyl)urea] it is 1900 nM.
The same measure, in the same setting: the figure for `CC(c1c[nH]c(=O)c2ccc(F)cc12)N(CC(CO)CO)C(=O)Nc1ccc(F)c(Cl)c1` (single isomer, unassigned) [Compound 296, 3-(3-Chloro-4-fluorophenyl)-1-(1-(6-fluoro-1-oxo-1,2-dihydroisoquinolin-4-yl)ethyl)-1-(3-hydroxy-2-(hydroxymethyl)propyl)urea] is 40 nM; for `CC(c1cn(C)c(=O)c2cc(F)ccc12)N(C)C(=O)Nc1ccc(F)c(Cl)c1` (single isomer, unassigned) [Compound 302, 3-(3-Chloro-4-fluorophenyl)-1-(1-(7-fluoro-2-methyl-1-oxo-1,2-dihydroisoquinolin-4-yl)ethyl)-1-methylurea] it is 3300 nM.
Turning to `CC(c1cn(C)c(=O)c2cc(F)ccc12)N(C)C(=O)Nc1ccc(F)c(Cl)c1` (single isomer, unassigned) [Compound 303, 3-(3-Chloro-4-fluorophenyl)-1-(1-(7-fluoro-2-methyl-1-oxo-1,2-dihydroisoquinolin-4-yl)ethyl)-1-methylurea], the EC50 was found to be 20 nM.
Same read-out and setting: under `CC(c1c[nH]c(=O)c2ccccc12)N(Cc1ccccn1)C(=O)Nc1ccc(F)c(Cl)c1` (single isomer, unassigned) [Compound 304, 3-(3-Chloro-4-fluorophenyl)-1-(1-(1-oxo-1,2-dihydroisoquinolin-4-yl)ethyl)-1-(pyridin-2-ylmethyl) urea] stands 9600 nM; under `CC(c1c[nH]c(=O)c2ccccc12)N(Cc1ccccn1)C(=O)Nc1ccc(F)c(Cl)c1` (single isomer, unassigned) [Compound 305, 3-(3-Chloro-4-fluorophenyl)-1-(1-(1-oxo-1,2-dihydroisoquinolin-4-yl)ethyl)-1-(pyridin-2-ylmethyl) urea], 590 nM; under `CC(c1c[nH]c(=O)c2ccccc12)N(Cc1cccnc1)C(=O)Nc1ccc(F)c(Cl)c1` (single isomer, unassigned) [Compound 306, 3-(3-Chloro-4-fluorophenyl)-1-(1-(1-oxo-1,2-dihydroisoquinolin-4-yl)ethyl)-1-(pyridin-3-ylmethyl) urea], 1000 nM.
`CC(c1c[nH]c(=O)c2ccccc12)N(Cc1cccnc1)C(=O)Nc1ccc(F)c(Cl)c1` (single isomer, unassigned) [Compound 307, 3-(3-Chloro-4-fluorophenyl)-1-(1-(1-oxo-1,2-dihydroisoquinolin-4-yl)ethyl)-1-(pyridin-3-ylmethyl) urea]: the EC50 was determined as 20000 nM.
Turning to `CC(c1c[nH]c(=O)c2ccccc12)N(Cc1ccncc1)C(=O)Nc1ccc(F)c(Cl)c1` (single isomer, unassigned) [Compound 308, 3-(3-Chloro-4-fluorophenyl)-1-(1-(1-oxo-1,2-dihydroisoquinolin-4-yl)ethyl)-1-(pyridin-4-ylmethyl) urea], the concentration for a half-maximal effect (EC50) was 130 nM.
The same measure, in the same setting: the figure for `CC(c1c[nH]c(=O)c2ccccc12)N(Cc1ccncc1)C(=O)Nc1ccc(F)c(Cl)c1` (single isomer, unassigned) [Compound 309, 3-(3-Chloro-4-fluorophenyl)-1-(1-(1-oxo-1,2-dihydroisoquinolin-4-yl)ethyl)-1-(pyridin-4-ylmethyl) urea] is 11000 nM; for `CC(c1c[nH]c(=O)c2ccccc12)N(Cc1nccs1)C(=O)Nc1ccc(F)c(Cl)c1` (single isomer, unassigned) [Compound 310, 3-(3-Chloro-4-fluorophenyl)-1-(1-(1-oxo-1,2-dihydroisoquinolin-4-yl)ethyl)-1-(thiazol-2-ylmethyl)urea] it is 5500 nM.
Consider `CC(c1c[nH]c(=O)c2ccccc12)N(Cc1nccs1)C(=O)Nc1ccc(F)c(Cl)c1` (single isomer, unassigned) [Compound 311, 3-(3-Chloro-4-fluorophenyl)-1-(1-(1-oxo-1,2-dihydroisoquinolin-4-yl)ethyl)-1-(thiazol-2-ylmethyl)urea], for which the EC50 worked out at 66 nM.
Still for that read-out and setting: the figure for `CC(c1c[nH]c(=O)c2ccccc12)N(Cc1cscn1)C(=O)Nc1ccc(F)c(Cl)c1` (single isomer, unassigned) [Compound 312, 3-(3-Chloro-4-fluorophenyl)-1-(1-(1-oxo-1,2-dihydroisoquinolin-4-yl)ethyl)-1-(thiazol-4-ylmethyl)urea] is 4600 nM; for `CC(c1c[nH]c(=O)c2ccccc12)N(Cc1cscn1)C(=O)Nc1ccc(F)c(Cl)c1` (single isomer, unassigned) [Compound 313, 3-(3-Chloro-4-fluorophenyl)-1-(1-(1-oxo-1,2-dihydroisoquinolin-4-yl)ethyl)-1-(thiazol-4-ylmethyl)urea] it is 400 nM.

Staying with this experiment, now noted: Hepatitis B virus, HepDE19, HepDE19 assay, inhibition of formation of relaxed circular DNA (rcDNA), bDNA quantitation; read-out: DE-19bDNA EC50.
On to `CNC(=O)N(C)C(C)c1c[nH]c(=O)c2ccccc12` (single isomer, unassigned) [Compound 298, 1,3-Dimethyl-1-(1-(1-oxo-1,2-dihydroisoquinolin-4-yl)ethyl)urea], for which the concentration giving a half-maximal response (EC50) came to 24000 nM.
With `CC(c1c[nH]c(=O)c2ccccc12)N(C)C(=O)NC1CCCC1` (single isomer, unassigned) [Compound 299, 3-Cyclopentyl-1-methyl-1-(1-(1-oxo-1,2-dihydroisoquinolin-4-yl)ethyl)urea], the EC50 worked out at 8600 nM.

As usually defined, the EC50 is the concentration that produces a half-maximal response.

Values taken from patent publication US20230045421A1 (priority 2018, published 2023).
